# Marks after values point to notes of the source that are not given here.
# What was measured:
# [1] = test system: mice; test: Open field test; format: in vivo; conditions: for Distance covered during 1st min (horizontal motor activity) / Distance during 2nd min (horizontal motor activity) / Distance during 3rd min (horizontal motor activity) / Explorations during 2nd min / Explorations during 3rd min / Number of explorations (holes) during 1st min / Number of washings during 1st min / Total distance at 3 min (horizontal motor activity) / Total number of explorations at 3 min / Total number of visits to the center at 3 min / Total number of washings at 3 min / Visits to the center during 1st min / Visits to the center during 2nd min / Visits to the center during 3rd min / Washings during 2nd min / Washings during 3rd min / vertical motor activity, 1st min (Distance covered) / vertical motor activity, 2nd min / vertical motor activity, 3rd min / vertical motor activity, total at 3 min: mice
# Method: Study of the effect of Phenotropil (100, 200, 300 mg/kg) on motor activity and exploratory behavior by the open field test on mice (16-24 g) in comparison with olanzapine (1 mg/kg) is shown in Tables 5-5.4. Olanzapine at higher doses has sedative activity, so for comparison with Phenotropil, the drug was used only at a dose of 1 mg/kg. The drugs and distilled water to control groups were injected intraperitoneally 40 minutes prior to the study. […] This indicates the ability of the drug to reversibility, unlike olanzapine.
# [2] = test system: cAMP; test: cAMP level in blood plasma of mice; format: in vivo; conditions: for increase of cAMP level: mice, 60 minutes before test; for cAMP level: mouse blood plasma, one hour after a single injection
# [3] = Solubility; format: physicochemical
# Excerpt: The crystalline powder of the Phenotropil substances is not volatile, has white, rarely white to slightly yellowish or slightly cream color, bitter taste (bitter taste that disappears in the mouth rather quickly after dissolution, leaving no unpleasant sensations). In the related products, the bitter taste persists. The Compounds are sparingly soluble in water and saline, moderately soluble in 96.0% alcohol and chloroform. Readily soluble in water and saline under heating, but the solutions are not stable during cooling and storage under normal conditions (not more than 2 hours, which is acceptable for the extemporaneous preparations and research), moderately soluble in 5.0% glucose solution, dissolve well in the presence of solubilizers and emulsifiers. Tween80 and cyclodextrins increase solubility in water, especially Tween80, while cyclodextrins have limitations by concentration. Sterile 0.001-3% solutions of Phenotropil in the presence of cyclodextrin or Tween (water for injection, Phenotropil, cyclodextrin (or Tween solution) were thoroughly stirred for 30 minutes, filtered, dispensed into ampoules of neutral glass, the ampoules were sealed and sterilized for 15 minutes at 120° C.). Sterile solutions are storage stable for at least 12 months. The ultimate shelf life is not specified; the samples are being stored.
# [4] = test system: mycobacteria (MTB), strain H37Rv; test: Mycobacteria (MTB) culture growth in vitro; format: cell-based
# Method: The presence of the proper anti-inflammatory effect in Phenotropil formed the basis for investigation of the effect of the drug on more complex pathological agents. The effect of different concentrations of Phenotropil on the mycobacteria (MTB) culture growth in vitro according to research standards (test culture—highly virulent laboratory strain H37Rv) was studied. A wide range of drug concentrations was prepared: 1 series—100, 50, 10 μg/ml, 2 series—from 10 to 0.31 μg/ml, and 3 series—from 2 to 0.031 μg/ml. To prepare the matrix solution, the sterile distilled water was used, and the Shkolnikova medium was used to prepare the said concentrations. To assess the growth and morphological properties of the MTB culture, suspended mycobacteria at appropriate concentrations of Phenotropil solution were inoculated on the Lowenstein-Jensen medium and Shkolnikova medium (4 tubes for each point). After 2 weeks, the presence of growth was determined visually in the Shkolnikova medium and smears from the sediment were prepared. The smears were fixed and stained according to Ziehl-Neelsen method. The number of mycobacteria in smears was counted and, based on the results obtained, the concentration of the drug at which the inhibition of the growth was observed was determined. The number of the MTB colonies and their morphological characteristics were evaluated on the Lowenstein-Jensen medium after four weeks from the time of inoculation. Registration of the results was also carried out four weeks after inoculation.
smiles,measurement,setting,value
"NC(=O)CN1CC(c2ccccc2)CC1=O (racemic) [Compound 1, (RS)-2-(2-oxo-4-phenylpyrrolidine-1-yl)acetamide]",increase of horizontal locomotor activity,[1]; 100 mg/kg,112.2%
same,increase of number of visits to the center vs control,[1]; 100 mg/kg,111%
same,increase of total exploratory behavior index,[1]; 100 mg/kg,50%
same,increase of total vertical locomotor activity,[1]; 100 mg/kg,237.5%
same,reduction of total index of washes vs control,[1]; 100 mg/kg,25%
same,decrease of total exploratory behavior index,[1]; 200 mg/kg,32%
same,increase of horizontal locomotor activity,[1]; 200 mg/kg,151.8%
same,increase of number of visits to the center vs control,[1]; 200 mg/kg,155%
same,vertical activity over three minutes vs control,[1]; 200 mg/kg,−6.3%
same,increase of horizontal locomotor activity,[1]; 300 mg/kg,99.5%
same,increase of number of visits to the center vs control,[1]; 300 mg/kg,133%
same,increase of total index of explored holes,[1]; 300 mg/kg,27%
same,number of rearings at the first minute vs control,[1]; 300 mg/kg,−75%
same,total number of rearings for 3 minutes vs control,[1]; 300 mg/kg,+56%
same,Distance covered during 1st min (horizontal motor activity),[1]; 100 mg/kg i.p.,23.7 ± 5*^
same,Distance during 2nd min (horizontal motor activity),[1]; 100 mg/kg i.p.,22.5 ± 3.1
same,Distance during 3rd min (horizontal motor activity),[1]; 100 mg/kg i.p.,44 ± 10.7
same,Explorations during 2nd min,[1]; 100 mg/kg i.p.,1.5 ± 0.4
same,Explorations during 3rd min,[1]; 100 mg/kg i.p.,1.3 ± 0.7
same,Number of explorations (holes) during 1st min,[1]; 100 mg/kg i.p.,0.5 ± 0.3
same,Number of washings during 1st min,[1]; 100 mg/kg i.p.,0.2 ± 0.2
same,Total distance at 3 min (horizontal motor activity),[1]; 100 mg/kg i.p.,90.2 ± 8.7
same,Total number of explorations at 3 min,[1]; 100 mg/kg i.p.,3.3 ± 0.9
same,Total number of visits to the center at 3 min,[1]; 100 mg/kg i.p.,3.9 ± 0.6
same,Total number of washings at 3 min,[1]; 100 mg/kg i.p.,0.3 ± 0.2^
same,Visits to the center during 1st min,[1]; 100 mg/kg i.p.,0.7 ± 0.5
same,Visits to the center during 2nd min,[1]; 100 mg/kg i.p.,2.2 ± 0.8
same,Visits to the center during 3rd min,[1]; 100 mg/kg i.p.,1 ± 0.5
same,Washings during 2nd min,[1]; 100 mg/kg i.p.,0.1 ± 0.2^
same,Washings during 3rd min,[1]; 100 mg/kg i.p.,0 ± 0
same,"vertical motor activity, 1st min (Distance covered)",[1]; 100 mg/kg i.p.,2.3 ± 1.1
same,"vertical motor activity, 2nd min",[1]; 100 mg/kg i.p.,3.8 ± 1.7
same,"vertical motor activity, 3rd min",[1]; 100 mg/kg i.p.,4.7 ± 1.6
same,"vertical motor activity, total at 3 min",[1]; 100 mg/kg i.p.,10.8 ± 4.2
same,Distance covered during 1st min (horizontal motor activity),[1]; 200 mg/kg i.p.,31.7 ± 2.8
same,Distance during 2nd min (horizontal motor activity),[1]; 200 mg/kg i.p.,41.8 ± 7.0
same,Distance during 3rd min (horizontal motor activity),[1]; 200 mg/kg i.p.,33.5 ± 4.7
same,Explorations during 2nd min,[1]; 200 mg/kg i.p.,0.8 ± 0.5
same,Explorations during 3rd min,[1]; 200 mg/kg i.p.,0.5 ± 0.5
same,Number of explorations (holes) during 1st min,[1]; 200 mg/kg i.p.,0.2 ± 0.2
same,Number of washings during 1st min,[1]; 200 mg/kg i.p.,0 ± 0
same,Total distance at 3 min (horizontal motor activity),[1]; 200 mg/kg i.p.,107 ± 11.5
same,Total number of explorations at 3 min,[1]; 200 mg/kg i.p.,1.5 ± 0.9
same,Total number of visits to the center at 3 min,[1]; 200 mg/kg i.p.,4.7 ± 0.7
same,Visits to the center during 1st min,[1]; 200 mg/kg i.p.,0.3 ± 0.2
same,Visits to the center during 2nd min,[1]; 200 mg/kg i.p.,2.7 ± 0.4
same,Visits to the center during 3rd min,[1]; 200 mg/kg i.p.,1.7 ± 0.4
same,Washings during 2nd min,[1]; 200 mg/kg i.p.,0 + 0 *
same,Washings during 3rd min,[1]; 200 mg/kg i.p.,0 ± 0
same,"vertical motor activity, 1st min (Distance covered)",[1]; 200 mg/kg i.p.,0 ± 0
same,"vertical motor activity, 2nd min",[1]; 200 mg/kg i.p.,1.3 ± 0.7
same,"vertical motor activity, 3rd min",[1]; 200 mg/kg i.p.,1.7 ± 0.7
same,"vertical motor activity, total at 3 min",[1]; 200 mg/kg i.p.,3.0 ± 1.3
same,Distance covered during 1st min (horizontal motor activity),[1]; 300 mg/kg i.p.,29.7 ± 12.3
same,Distance during 2nd min (horizontal motor activity),[1]; 300 mg/kg i.p.,27.2 ± 10.2
same,Distance during 3rd min (horizontal motor activity),[1]; 300 mg/kg i.p.,28 ± 6.4
same,Explorations during 2nd min,[1]; 300 mg/kg i.p.,1.5 ± 0.8
same,Explorations during 3rd min,[1]; 300 mg/kg i.p.,1.0 ± 0.8
same,Number of explorations (holes) during 1st min,[1]; 300 mg/kg i.p.,0.3 ± 0.2
same,Number of washings during 1st min,[1]; 300 mg/kg i.p.,0.2 ± 0.2
same,Total distance at 3 min (horizontal motor activity),[1]; 300 mg/kg i.p.,84.8 ± 28.0
same,Total number of explorations at 3 min,[1]; 300 mg/kg i.p.,2.8 ± 1.4
same,Total number of visits to the center at 3 min,[1]; 300 mg/kg i.p.,4.2 ± 0.8
same,Total number of washings at 3 min,[1]; 300 mg/kg i.p.,0.2 ± 0.2
same,Visits to the center during 1st min,[1]; 300 mg/kg i.p.,1.2 ± 0.4
same,Visits to the center during 2nd min,[1]; 300 mg/kg i.p.,1.3 ± 0.5
same,Visits to the center during 3rd min,[1]; 300 mg/kg i.p.,1.7 ± 0.5
same,Washings during 2nd min,[1]; 300 mg/kg i.p.,0 ± 0
same,Washings during 3rd min,[1]; 300 mg/kg i.p.,0 ± 0
same,"vertical motor activity, 1st min (Distance covered)",[1]; 300 mg/kg i.p.,0.3 ± 0.2
same,"vertical motor activity, 2nd min",[1]; 300 mg/kg i.p.,2 ± 1.2
same,"vertical motor activity, 3rd min",[1]; 300 mg/kg i.p.,2.7 ± 1.1
same,"vertical motor activity, total at 3 min",[1]; 300 mg/kg i.p.,5.0 ± 1.8
same,increase of cAMP level,[2]; single i.p. 10 mg/kg,21%
same,increase of cAMP level,[2]; single i.p. 50 mg/kg,65.5%
same,increase of cAMP level,[2]; single i.p. 100 mg/kg,96.3%
same,cAMP level,[2]; 10 mg/kg,4.56 ± 0.67 pikomol/50 μl plasma
same,cAMP level,[2]; 50 mg/kg,6.24 ± 0.81 pikomol/50 μl plasma
same,cAMP level,[2]; 100 mg/kg,7.40 ± 0.62 pikomol/50 μl plasma
same,solubility in 96% alcohol and chloroform,[3],moderately soluble
same,solubility in water (and saline),[3],sparingly soluble in water
same,Mean number of MTB colonies,[4]; 0.031 ug/ml,contiguous
same,Mean number of MTB colonies,[4]; 0.063 ug/ml,contiguous
same,Mean number of MTB colonies,[4]; 0.125 ug/ml,107
same,Mean number of MTB colonies,[4]; 0.250 ug/ml,97
same,Mean number of MTB colonies,[4]; 0.310 ug/ml,83
same,Mean number of MTB colonies,[4]; 0.500 ug/ml,70
same,Mean number of MTB colonies,[4]; 0.630 ug/ml,65
same,Mean number of MTB colonies,[4]; 1.0 ug/ml,67
same,Mean number of MTB colonies,[4]; 1.25 ug/ml,74
same,Mean number of MTB colonies,[4]; 2.0 ug/ml,79
same,Mean number of MTB colonies,[4]; 5.0 ug/ml,90
same,Mean number of MTB colonies,[4]; 10.0 ug/ml,123
same,Mean number of MTB colonies,[4]; 50.0 ug/ml,contiguous
same,Mean number of MTB colonies,[4]; 100 ug/ml,contiguous
same,number of MTB colonies,[4]; concentrations from 0.25 to 5.0 μg/ml,Less than 100

# Source: patent US20140315972A1, “RS)-2-(2-oxo-4-phenylpyrrolidin-1-yl)acetamide compound having modulatory activity with a commensurate effect, pharmaceutical substance (variants) and its application, composition (variants) thereof” (priority 2011, published 2014)
